US4169097A, “2,3-Dihydro-4H-1-benzopyran-4-one O-carbamoyl oximes” (priority 1978, dated 1979)

System: gastric acid secretion
Assay: modified standard pylorus-ligated secretory testing procedure in the rat
Type: in vivo, Sprague-Dawley rats
Conditions: 50-100 mg/kg p.o., 1 hr. prior to ligation, 4 hrs. after ligation; for % Inhibition Gastric acid output: titration to pH 7, vs control 0.5% Methocel; for % Inhibition Volume of gastric secretion: vs control 0.5% Methocel
Source text: Such effect is evidenced using a modified standard pylorus-ligated secretory testing procedure in the rat. Sprague-Dawley rats, weighing 180-210 g and previously fasted for 24 hrs., were used. All compounds were given perorally as suspensions in 0.5% Methocel 1 hr. prior to pylorus ligation. Under light ether anesthesia, the rat stomach was ligated at the pylorus region. Four hrs. after ligation, the conscious rat was sacrificed by a chloroform overdose. The stomach was carefully excised and its content drained into a centrifuge tube. Samples were centrifuged to separate secretions from debris. Gastric fluid volume reading and determination of sample contamination, based on debris and sample color, was made. Titration was performed on a sample aliquot from 1 ml diluted to a volume of 5 ml using distilled water. The titrant used was 0.1 N NaOH. Total gastric acid output in the stomach was determined by titration to pH 7. A dose from 50-100 mg/kg p.o. of a compound was administered to a group of rats and its effect on the volume of gastric secretion and acid output compared to a control group receiving 0.5% Methocel p.o. The activity of each compound based on the degree of inhibition of gastric acid output is set forth in Table I.

In the case of `CNC(=O)ON=C1CCOc2ccc(N)cc21` [VI, 6-Amino-2,3-dihydro-4H-1-benzopyran-4-one O(Methylaminocarbonyl)oxime], the “% Inhibition Gastric acid output” value is reported as 55.8% and the “% Inhibition Volume of gastric secretion” value is reported as 64.4%.

In the case of `CNC(=O)ON=C1CCOc2ccccc21` [I, 2,3-Dihydro-4H-1-benzopyran-4-one O-(Methylcarbamoyl) oxime], the “% Inhibition Gastric acid output” value is reported as 60.4% and the “% Inhibition Volume of gastric secretion” value is reported as 34.1%.

For `CCNC(=O)ON=C1CCOc2ccccc21` [III, 2,3-Dihydro-4-H-1-Benzopyran-4-one O-(Ethylaminocarbonyl)oxime], the “% Inhibition Gastric acid output” value was 79.7% and the “% Inhibition Volume of gastric secretion” value was 61.8%.

With `CNC(=O)ON=C1CCOc2ccc(Cl)cc21` [V, 6-Chloro-2,3-dihydro-4H-1-benzopyran-4-one O-(Methylaminocarbonyl)oxime] the “% Inhibition Gastric acid output” value was 40.0% and the “% Inhibition Volume of gastric secretion” value was 55.2%.

For `C=CCNC(=O)ON=C1CCOc2ccccc21` [VII, 2,3-Dihydro-4H-1-benzopyran-4-one O-[(2-Propenyl)aminocarbonyl]oxime], the “% Inhibition Gastric acid output” value was 89.9% and the “% Inhibition Volume of gastric secretion” value was 76.2%.

`CCNC(=O)ON=C1CCOc2ccc(OC)cc21` [II, 2,3-Dihydro-6-methoxy-4-H-1-benzopyran-4-one O-(Ethylcarbamoyl)-oxime] was tested, and the “% Inhibition Gastric acid output” value was 57.7% and the “% Inhibition Volume of gastric secretion” value was 33.2%.

With `CCCNC(=O)ON=C1CCOc2ccccc21` [VIII, 2,3-Dihydro-4H-1-benzopyran-4-one 0-(1-Propylaminocarbonyl)oxime] the “% Inhibition Gastric acid output” value was 88.1% and the “% Inhibition Volume of gastric secretion” value was 73.1%.

For `NC(=O)ON=C1CCOc2ccccc21` [IX, 2,3-Dihydro-4H-1-benzopyran-4-one O-(Aminocarbonyl)oxime], the “% Inhibition Gastric acid output” value was 77.9% and the “% Inhibition Volume of gastric secretion” value was 60.5%.

In the case of `CNC(=O)ON=C1CCOc2ccc(OC)cc21` [IV, 2,3-Dihydro-6-methoxy-4H-1-benzopyran-4-one O-(Methylaminocarbonyl)oxime], the “% Inhibition Gastric acid output” value is reported as 45.5% and the “% Inhibition Volume of gastric secretion” value is reported as 35.3%.
